From PMC9428149, “Tackling recalcitrant Pseudomonas aeruginosa infections in critical illness via anti-virulence monotherapy” (Nature Communications, 2022)
Converted amounts (≈) assume the structure as drawn. Read-outs that look alike come from different tables or passages of the source.

Legend:
[1] = system: pqsA promoter (PA14 PpqsA-GFPASV); assay: pqsA-GFP reporter expression; format: cell-based, Pseudomonas aeruginosa; conditions: Pseudomonas aeruginosa
[2] = system: mvfR mutant constitutively expressing the pqsABCDE operon; format: cell-based; conditions: Pseudomonas aeruginosa, control about 100, single replicates (Figure 4a)
[3] = system: MvfR-regulated small molecules in PA14; assay: Production of HAQs, 2-AA, DHQ and AA in PA14 cultures (LC-MS); conditions: Pseudomonas aeruginosa
MvfR protein (MvfRC87) = biological target: T1, MvfR protein (MvfRC87) (Pseudomonas aeruginosa, UniProt Q9I4X0); format: binding; conditions: SPR
T1 construct: The MvfRC87 protein purified as in Xiao et. al., 2006; made in house
Experimental: The selected compounds were tested for their ability to bind to MvfR. Target validation was carried out by using surface plasmon resonance (SPR). The MvfRC87 protein purified as in Xiao et. al., 2006[33] was covalently immobilized on a CM7 Series S sensor chip using an amine coupling reagent kit (GE Healthcare) at the range level of 3000 to 5000 response units (RU). RU was analyzed by Biacore T200 evaluation software 2.0 (GE Healthcare). The relative response units (RUs) 5 seconds before the end of the association were extracted from the double-reference-corrected sensor grams at different concentrations. These responses were plotted against their respective concentrations for MvfR inhibitor alone and in the presence of native MvfR ligand PQS and compared to the calculated responses for the mixture expected for different binding sites.

PA14 AT/P cells = assay: AT/P cells formation assay in PA14; format: cell-based, Pseudomonas aeruginosa; conditions: Pseudomonas aeruginosa, PA14, 24 h, read-out: inhibition of AT/P cells formation
[4] = system: pyocyanin production in PA14; assay: Pyocyanin production assay; conditions: Pseudomonas aeruginosa
[5] = system: PA14 isogenic mutant ΔmvfR AT/P cells; assay: AT/P cell formation in ΔmvfR mutant (off-target); conditions: Pseudomonas aeruginosa, PA14, 24 h, read-out: AT/P cell formation, ΔmvfR + compound; PA14 about 100; single replicates (Figure 4b)
Experimental: Cells were grown in the presence of 10 μg mL^−1 meropenem, with or without 10 µM of the compounds for 24 h. Values were normalized to cells grown for 4 h in the absence of antibiotics and compounds. The ∆mvfR cells grown with antibiotics and vehicles were considered control, and the percentage values were calculated compared to control. c Biofilm formation of mutant ∆mvfR cells with or without compound. […] The number of biological replicates for each compound and strain is depicted in the graph. The error bars denote ±SEM.
The AT/P cell formation assay was performed according to the method previously described in Starkey et al., 2014 (persister cell assay). The over-day culture was incubated at 37 °C with shaking at 200 rpm until the culture OD600nm was 3.0. The culture was then diluted at 1:100 and grown in the same conditions for 4 h. After 4 h, 200 µL were collected, and serial dilutions were plated on LB agar plates for CFU quantification (as normalizers). The remainder of the culture was treated with meropenem to a final concentration of 100 × MIC (Minimum Inhibitory Concentration; 10 mg L^−1) and compounds at a final concentration of 10 µM. After 24 h, culture aliquots were 10-fold serially diluted in LB broth and plated on LB agar for CFU quantification. The AT/P fraction was determined as the normalizers (pre-antibiotic) ratio divided by the AT/P fraction (24 h post-antibiotic)[22].

[6] = system: 16 MDR P. aeruginosa clinical isolates; assay: Pyocyanin production in MDR clinical isolates; conditions: Pseudomonas aeruginosa, 18 h, Control about 100, replicates
[7] = Solubility in iPBS pH 7.4 by HPLC; format: physicochemical; conditions: isotonic phosphate buffer (iPBS), aqueous with cosolvent or surfactant or cyclodextrin, kinetic from dmso stock; iPBS pH 7.4, HPLC; read-out: Solubility (M) in PBS
Experimental: Solubility of the 10 mM compounds dissolved in DMSO was tested in the isotonic phosphate buffer (iPBS) at pH 7.4 using High-Performance Liquid Chromatography (HPLC). For the preparation of iPBS phosphate-buffered saline tab (Sigma-Aldrich 08057-12Tab-F) is dissolved in 500 mL of deionized water and the final composition of the solution contains 10 mM PBS, 2.7 mM KCl, 140 mM NaCl and 0.05% Tween. A total 10 µL of the compound from a 10 mM stock solution in DMSO was added to the vial, and 190 µL of buffer was added to each vial and mixed with shaking at room temperature for 4 h. Thereafter the samples were filtered, and 160 µL of the sample was mixed with 40 µL of DMSO for the final injection. Ibuprofen (high solubility) and Progesterone (low Solubility) were used as standard compounds. Ammonium Acetate aqueous solution (50 mM, pH 7.4) and the acetonitrile were used as mobile phases A and B, respectively. The measurement of concentration was achieved by comparing of UV absorbance of the sample solution and the known standard solution following an HPLC separation using a generic fast gradient method. The solubility of each compound is expressed by the ratio of compound amount in the sample test solution to the amount of compound in the standard solution.

T1 sequence (Q9I4X0 87-332): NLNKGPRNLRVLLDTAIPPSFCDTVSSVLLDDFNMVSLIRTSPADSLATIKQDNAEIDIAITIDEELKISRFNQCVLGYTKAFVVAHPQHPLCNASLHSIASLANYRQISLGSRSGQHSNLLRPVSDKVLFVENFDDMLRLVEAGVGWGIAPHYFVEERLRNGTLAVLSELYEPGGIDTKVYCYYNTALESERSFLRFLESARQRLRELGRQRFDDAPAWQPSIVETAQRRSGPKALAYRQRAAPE

In the case of N#Cc1ccc(NC(=O)CC(=O)Nc2ccc(Br)cc2)cc1 [D42], the activity at 50 µM ([1]; PA14, read-out: % Production pqsA-GFP) is reported as 8%, the IC50 ([1]; PA14, read-out: IC50 pqsA-GFP expression, PA14, 13 concentrations) is reported as 920 nM and the activity at 50 µM ([2]; read-out: HQNO, ΔmvfR-pqsABCD strain) is reported as 90.7%. The activity at 50 µM ([2]; read-out: PQS, ΔmvfR-pqsABCD strain) was 98.9%, the activity at 50 µM ([3]; PA14, read-out: % Production 2-AA) was 6% and the activity at 50 µM ([3]; PA14, read-out: % Production AA) was 701%. The activity at 50 µM ([3]; PA14, read-out: % Production DHQ) was 11%, the activity at 50 µM ([3]; PA14, read-out: % Production HHQ) was 2% and the activity at 50 µM ([3]; PA14, read-out: % Production HQNO) was 14%. For the same molecule, the activity at 50 µM ([3]; PA14, read-out: % Production PQS) was 8%, the inhibition at 50 µM ([3]; PA14, read-out: HHQ production inhibition) was 89 to 99% and the inhibition at 50 µM ([3]; PA14, read-out: HQNO production inhibition) was 40 to 92%. For the same molecule, the inhibition at 50 µM ([3]; PA14, read-out: PQS production inhibition) was 76 to 97%, the inhibition at 50 µM ([3]; PA14, read-out: inhibition of 2-AA production) was 82 to 95% and the inhibition at 50 µM ([3]; PA14, read-out: inhibition of DHQ production) was 82 to 96%. The “Response Unit (RU)” value (MvfR protein (MvfRC87); Concentration 1.00E-05 M) was 30 RU, the “Response Unit (RU)” value (MvfR protein (MvfRC87); Concentration 1.00E-06 M) was 23 RU and the “Response Unit (RU)” value (MvfR protein (MvfRC87); Concentration 1.00E-07 M) was 10.1 RU. The “Response Unit (RU)” value (MvfR protein (MvfRC87); Concentration 1.00E-08 M) was 2.1 RU, the “Response Unit (RU)” value (MvfR protein (MvfRC87); Concentration 3.16E-06 M) was 27.4 RU and the “Response Unit (RU)” value (MvfR protein (MvfRC87); Concentration 3.16E-07 M) was 16.8 RU. For the same molecule, the “Response Unit (RU)” value (MvfR protein (MvfRC87); Concentration 3.16E-08 M) was 5 RU, the inhibition at 10 µM (PA14 AT/P cells) was at least 76% and the activity at 50 µM ([4]; PA14, 18 h, read-out: % Production Pyocyanin) was 6%. For the same molecule, the IC50 ([4]; PA14, read-out: IC50 pyocyanin production) was 1340 nM, the activity at 10 µM [5] was 25.1% and the activity at 10 µM ([6]; read-out: Pyocyanin production relative to Control, clinical isolate LGR-4325) was 15.2%. The activity at 10 µM ([6]; read-out: Pyocyanin production relative to Control, clinical isolate LGR-4326) was 9.87%, the activity at 10 µM ([6]; read-out: Pyocyanin production relative to Control, clinical isolate LGR-4327) was 23.8% and the activity at 10 µM ([6]; read-out: Pyocyanin production relative to Control, clinical isolate LGR-4328) was 15.7%. For the same molecule, the activity at 10 µM ([6]; read-out: Pyocyanin production relative to Control, clinical isolate LGR-4330) was 16.4%, the activity at 10 µM ([6]; read-out: Pyocyanin production relative to Control, clinical isolate LGR-4331 (first section, r117)) was 17.2% and the activity at 10 µM ([6]; read-out: Pyocyanin production relative to Control, clinical isolate LGR-4331 (second section, r140)) was 10%. For the same molecule, the activity at 10 µM ([6]; read-out: Pyocyanin production relative to Control, clinical isolate LGR-4333) was 11.6%, the activity at 10 µM ([6]; read-out: Pyocyanin production relative to Control, clinical isolate LGR-4343) was 15.3% and the activity at 10 µM ([6]; read-out: Pyocyanin production relative to Control, clinical isolate LGR-4344) was 19.4%. It also gave an activity at 10 µM ([6]; read-out: Pyocyanin production relative to Control, clinical isolate LGR-4348) of 11.9%, an activity at 10 µM ([6]; read-out: Pyocyanin production relative to Control, clinical isolate LGR-4356) of 16.3% and an activity at 10 µM ([6]; read-out: Pyocyanin production relative to Control, clinical isolate LGR-4362) of 26.2%. It also gave an activity at 10 µM ([6]; read-out: Pyocyanin production relative to Control, clinical isolate LGR-4363) of 20.8%, an activity at 10 µM ([6]; read-out: Pyocyanin production relative to Control, clinical isolate LGR-4364 (first section, r326)) of 16.1% and an activity at 10 µM ([6]; read-out: Pyocyanin production relative to Control, clinical isolate LGR-4364 (second section, r349)) of 16.4%. For the same molecule, the solubility at 4 h [7] was 1.5e-05 M (≈ 5.37 µg/mL).
